The cell lines below were run with C(C(=O)C(=O)O)Br [Bromopyruvate] + Nc1ncn([C@H]2C[C@H](O)[C@@H](CO)O2)c(=O)n1 [Decitabine] (partner 2 µM) (assay: relative viability (nuclei count vs DMSO), 5 days (fraction); higher = more cells survive). Conditions: first compound 10 µM.
Method in brief: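 One day after seeding in 1536-well plates, lung cancer cell lines were dosed by pin tool. Dosing was either single-drug or a fixed anchor-drug dose plus five library-drug doses (not always all listed) in √10 steps. After 5 days, nuclei were stained in one fix-and-stain step and counted on 4× images, and relative viability is the nuclei count of treated wells over that of vehicle wells, given as the median of duplicate plates.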

First: NCI-H1666
Second: NCI-H647
The relative viability of the first is higher: 0.835 for the first, 0.405 for the second.

First: LK-2
Second: NCI-H2126
The relative viability of the first is lower: 0.287 for the first, 0.543 for the second.

First: NCI-H2342
Second: SK-MES-1
The relative viability of the first is higher: 0.676 for the first, 0.353 for the second.

First: H3255
Second: COR-L23
The relative viability of the first is higher: 0.794 for the first, 0.469 for the second.

Compared with COR-L 105, LOU-NH91 is higher in relative viability: 0.75 for the first, 0.799 for the second.

Going from ChaGo-K-1 to NCI-H2170, the relative viability falls from 0.609 to 0.424.

Going from NCI-H3122 to HOP-62, the relative viability falls from 0.365 to 0.186.

Going from HCC-44 to A549, the relative viability falls from 0.895 to 0.36.

Going from SW 900 to LU99A, the relative viability rises from 0.462 to 0.979.

Going from NCI-H1648 to NCI-H1395, the relative viability rises from 0.454 to 0.751.

First: NCI-H1793
Second: NCI-H1944
The relative viability of the first is higher: 0.697 for the first, 0.503 for the second.

For NCI-H358, the relative viability was 0.223.

Same assay, conditions: first compound 31.62 µM

Going from NCI-H522 to NCI-H838, the relative viability falls from 0.699 to 0.405.

First: NCI-H1650
Second: NCI-H2009
The relative viability of the first is higher: 0.454 for the first, 0.349 for the second.

First: NCI-H1993
Second: PC-14
The relative viability of the first is higher: 0.655 for the first, 0.262 for the second.

Going from LCLC-103H to NCI-H596, the relative viability rises from 0.77 to 1.05.

First: NCI-H2087
Second: HCC-366
The relative viability of the first is lower: 0.305 for the first, 0.348 for the second.

Compared with NCI-H1666, NCI-H647 is lower in relative viability: 0.66 for the first, 0.393 for the second.

Going from LK-2 to NCI-H2126, the relative viability rises from 0.325 to 0.582.

Compared with NCI-H2342, SK-MES-1 is lower in relative viability: 0.695 for the first, 0.427 for the second.

First: H3255
Second: COR-L23
The relative viability of the first is higher: 0.609 for the first, 0.379 for the second.

First: COR-L 105
Second: LOU-NH91
The relative viability of the first is lower: 0.706 for the first, 0.876 for the second.

Compared with ChaGo-K-1, NCI-H2170 is lower in relative viability: 0.529 for the first, 0.44 for the second.

Compared with NCI-H3122, HOP-62 is lower in relative viability: 0.425 for the first, 0.211 for the second.

First: HCC-44
Second: A549
The relative viability of the first is higher: 0.943 for the first, 0.308 for the second.

Compared with SW 900, LU99A is higher in relative viability: 0.419 for the first, 0.949 for the second.

Going from NCI-H1648 to NCI-H1395, the relative viability rises from 0.511 to 0.707.

First: NCI-H1793
Second: NCI-H1944
The relative viability of the first is higher: 0.393 for the first, 0.39 for the second.

Work on NCI-H358 yielded a relative viability of 0.247.

Same assay, conditions: first compound 100 µM

Going from NCI-H522 to NCI-H838, the relative viability falls from 0.603 to 0.457.

Compared with NCI-H1650, NCI-H2009 is lower in relative viability: 0.266 for the first, 0.261 for the second.

First: NCI-H1993
Second: PC-14
The relative viability of the first is higher: 0.464 for the first, 0.201 for the second.

First: LCLC-103H
Second: NCI-H596
The relative viability of the first is lower: 0.825 for the first, 1.03 for the second.

Going from EMC-BAC-2 to NCI-H2087, the relative viability falls from 0.921 to 0.259.

First: HCC-366
Second: NCI-H1666
The relative viability of the first is lower: 0.351 for the first, 0.705 for the second.

Going from NCI-H647 to LK-2, the relative viability falls from 0.474 to 0.272.

Compared with NCI-H2126, NCI-H2342 is higher in relative viability: 0.564 for the first, 0.629 for the second.

Compared with SK-MES-1, H3255 is higher in relative viability: 0.337 for the first, 0.622 for the second.

Going from COR-L23 to COR-L 105, the relative viability rises from 0.281 to 0.525.

Compared with LOU-NH91, ChaGo-K-1 is lower in relative viability: 0.861 for the first, 0.486 for the second.

Going from NCI-H2170 to NCI-H3122, the relative viability falls from 0.438 to 0.377.

HOP-62 gave a relative viability of 0.138.
